Reference: US20100041903A1, “Ozonized Surfactant” (ERC TECHNOLOGY INC., priority 2006, published 2010)

Tests used:
[1] = tested on: Cladosporium cladosporioides; assay: Minimum inhibitory concentration test; assay type: cell-based; conditions: 96 H, 25° C., Sabouraud medium, 1 × 10^5/mL
Text: (§1) In order to check the antibacterial and antifungal performance of the ozonized surfactant according to the present invention, bacteriostatic and bactericidal effects of the ozonized surfactant against five kinds of microorganisms were examined. The five kinds of target microorganisms were Staphyrococcus aureus as a prokaryotic gram-positive bacterium, Escherichia coli as a prokaryotic gram-negative bacterium, Saccharomyces cerevisiae and Trichophyton mentagrophytes as fungi which are eukaryotic microorganisms, and Cladosporium cladosporioides. One loopful of each strain was inoculated in a medium optimum for the strain, and cultured under culture conditions optimum for the strain to prepare a cell suspension for inoculation. […] 9 mL of each medium shown in Table 1 was dispensed into L-shaped test tubes for a biophotorecorder, and was then sterilized by steam. […] 0.1 mL of the cell suspension for inoculation was inoculated into the graduated dilution series to be tested (the initial number of cells of each microorganism is shown in Table 1). […] In the following tests, they were sterilized in the same manner. [table] […] Another graduated dilution series was prepared between the temporary minimum inhibitory concentration and the concentration of the ozonized surfactant nearest to the temporary minimum inhibitory concentration, at which turbidity occurred. Then, the same operation as described above was again carried out. […] It is to be noted that this MIC test against these five kinds of microorganisms was carried out also using, as a control, the surfactant solution not subjected to ozone treatment.

[2] = tested on: Escherichia coli; assay: Minimum inhibitory concentration test; assay type: cell-based; conditions: 24 H, 30° C., Bouillon liquid medium, 1 × 10^7/mL
Text: as §1

[3] = tested on: Saccharomyces cerevisiae; assay: Minimum inhibitory concentration test; assay type: cell-based; conditions: 48 H, 28° C., YM liquid medium, 1 × 10^6/mL
Text: as §1

[4] = tested on: Staphyrococcus aureus; assay: Minimum inhibitory concentration test; assay type: cell-based; conditions: 24 H, 37° C., Bouillon liquid medium, 1 × 10^7/mL
Text: as §1

[5] = tested on: Trichophyton mentagrophytes; assay: Minimum inhibitory concentration test; assay type: cell-based; conditions: 96 H, 25° C., Sabouraud medium, 1 × 10^5/mL
Text: as §1

[6] = Surface-active property test (contact angle on polyvinyl chloride plate); assay type: physicochemical; conditions: Surfactant not subjected to ozone treatment; 1 wt % aqueous solution on polyvinyl chloride plate
Procedure: The surface-active properties of ozonized surfactants were determined in the following manner. 1 wt % of aqueous solutions of surfactants (Tween 80, polyethylene glycol 10 oleyl ether, and polyethylene glycol 20 oleyl ether (manufactured by Wako Pure Chemical Industries, Ltd.)) were prepared, and each of the solutions was dropped on a polyvinyl chloride plate to measure a contact angle (θ) using a contact angle meter CA-VP (manufactured by Kyowa Interface Science Co., Ltd.). The same measurement was carried out for the ozonized surfactants obtained in Examples 1, 2 and 4.

Substance: Polyethylene glycol 10 oleyl ether [Polyethylene glycol (10) oleyl ether]
- minimum inhibitory concentration [1]: >1% by weight
- minimum inhibitory concentration [2]: >1% by weight
- minimum inhibitory concentration [3]: >1% by weight
- minimum inhibitory concentration [4]: >1% by weight
- minimum inhibitory concentration [5]: >1% by weight
- Contact angle (θ) [6]: 51.9 degree (°)

Substance: polyethylene glycol 20 oleyl ether [Polyethylene glycol (20) oleyl ether]
- Contact angle (θ) [6]: 59.4 degree (°)
